The values below come from publication PMC6145841 (Biochemistry, 2018).

Test [1] addresses T1, ComD1 receptor (Streptococcus pneumoniae serotype 2, UniProt A0A0H2ZM50). Particulars: Table 1; ref [26]; cited from earlier work.
For the next test, the target named is ComD2 receptor (Streptococcus pneumoniae serotype 4, UniProt A0A0H2US84). The format is cell-based.
In test [2] the target is T1, ComD1 receptor. Briefly: Beta-galactosidase reporter dose response assay, group I strain D39pcomX::lacZ. Type of test: cell-based.

Square brackets hold non-standard residues; d marks the D form. Peptide text beside a SMILES is read from it.

For EMALSKFFRDFILQRKK [CSP1-R3A], the “activity against the ComD1 receptor (in words)” value at ComD1 receptor [1] is reported as “complete loss of activity”.

For orientation: EC50 means the concentration at which the effect is half-maximal. High values mean lower potency in that assay, low ones higher potency in that assay. As for `CC[C@H](C)[C@H](NC(=O)[C@H](C)NC(=O)[C@H](C)NC(=O)[C@H](C)NC(=O)[C@H](CCCNC(=N)N)NC(=O)[C@H](CCSC)NC(=O)[C@@H](N)CCC(=O)O)C(=O)N[C@H](C(=O)N[C@@H](CC(C)C)C(=O)N[C@H](CC(=O)O)C(=O)N[C@@H](Cc1ccccc1)C(=O)N[C@@H](CC(C)C)C(=O)N[C@@H](Cc1ccccc1)C(=O)N[C@@H](C)C(=O)N[C@@H](CCCNC(=N)N)C(=O)N[C@@H](CCCCN)C(=O)N[C@@H](CCCCN)C(=O)O)[C@@H](C)CC` [CSP2-I4AS5AR6Ad10L14A] (H-EMRAAAIIL[dD]FLFARKK-OH), the EC50 on ComD2 receptor was 87.7 nM; at ComD1 receptor [2] it was greater than 1000 nM.
